Values quoted from earlier work as cited in patent US11351213B2, “Composition for the prevention and/or treatment of respiratory tract disorders” (NEILOS S.R.L., priority 2017, dated 2022).

Key:
[1] = test system: patients affected by COPD; conditions: HIACE study
[2] = test system: COPD patients
[3] = not given; remark: listed apart in the source
[4] = COPD patients under treatment for six months

CC(=O)N[C@@H](CS)C(=O)O [NAC, N-acetyl-L-cysteine]
exacerbations ([1]; COPD, reduction from 1.71 times a year): 0.96 times a year | forced expiratory flow ([1]; patients affected by COPD): rose from 25% to 75% | reduction of days of malaise ([2]; COPD): 0.56 days/month | reduction of exacerbations of the pathology ([2]; COPD): 0.07 exacerbations/month | reduction of hospitalisations for COPD ([2]; COPD): 30% | FEV1 (forced expiratory volume at the first second) [2, 4]: significant increase | maximum expiratory flow [2, 4]: significant increase | FEV1 ([2]; after a brief therapy of 4 weeks): from 25% to 30%

O=c1c2ccccc2nc2n1CC[C@@H]2O [Vasicinone, vasicinone]
activity on bronchi in vitro: bronchodilating activity | activity on bronchi in vivo [3]: bronchoconstricting activity

O[C@H]1CCN2Cc3ccccc3N=C12 [vasicine]
activity on bronchi in vitro: bronchodilating activity | activity on bronchi in vivo [3]: bronchodilating activity
